Data on 1 compound can be found in ChEMBL document CHEMBL5528056, “BAY-9835: Discovery of the First Orally Bioavailable ADAMTS7 Inhibitor” (J Med Chem, 2024).

The nature of series [1]: Selectivity ratio of IC50 for ADAMTS5 (unknown origin) to IC50 for ADAMTS7 (unknown origin).
Series [2] is described as follows: Selectivity ratio of IC50 for MMP12 (unknown origin) to IC50 for ADAMTS7 (unknown origin).
For series [3], the target named is T1, Cytochrome P450 3A4 (Homo sapiens, UniProt P08684). The experiment in a line: Induction of CYP3A4 in human hepatocytes assessed as threshold concentration incubated for 48 hrs by qPCR analysis. It counts as ADME, cell-based, Hepatocyte. For orientation: Quantitative PCR measures a nucleic acid by following its amplification.
Series [4] in a line: Solubility of compound in water at pH 7 measured after 24 hrs by HPLC analysis. It counts as physicochemical. The following applies: buffer, pH 7, 24 h.
Series [5] in a line: Solubility of compound in FaSSIF measured after 24 hrs by HPLC analysis. The conditions noted are these: simulated gi fluid. It counts as ADME.
Series [6] in a line: Stability in aqueous solution at pH 1 to 7 measured after 24 hrs by HPLC analysis. The following applies: buffer, pH 1, 24 h. It counts as physicochemical.
Series [7] can be described thus: Fraction unbound in human plasma. It counts as ADME, cell-free.
The target of series [8] is T2, Cytochrome P450 2C8 (Homo sapiens, UniProt P10632).
T2 sequence (P10632 whole entry): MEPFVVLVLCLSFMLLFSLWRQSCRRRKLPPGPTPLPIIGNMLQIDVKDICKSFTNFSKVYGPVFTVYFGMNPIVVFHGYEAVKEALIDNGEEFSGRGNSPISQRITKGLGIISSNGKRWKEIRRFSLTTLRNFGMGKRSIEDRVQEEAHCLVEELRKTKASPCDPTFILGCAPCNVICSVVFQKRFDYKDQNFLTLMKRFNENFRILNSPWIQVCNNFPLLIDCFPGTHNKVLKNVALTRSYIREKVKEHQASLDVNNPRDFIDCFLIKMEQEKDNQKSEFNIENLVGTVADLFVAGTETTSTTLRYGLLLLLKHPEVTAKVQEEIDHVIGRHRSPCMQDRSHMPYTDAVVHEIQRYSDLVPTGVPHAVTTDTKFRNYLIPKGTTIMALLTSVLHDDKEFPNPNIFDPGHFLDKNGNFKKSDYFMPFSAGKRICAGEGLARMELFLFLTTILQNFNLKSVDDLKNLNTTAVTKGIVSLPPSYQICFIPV
As to the kind of experiment: Inhibition of CYP2C8 in human liver microsomes using amodiaquin as substrate upto 20 uM by LC-MS/MS analysis. It counts as ADME, Microsome. (Microsomes from liver hold many membrane-bound enzymes, among them those of drug oxidation.)

The target in series [9] is T2, Cytochrome P450 2C8. As to the kind of experiment: Inhibition of CYP2C8 in human liver microsomes using diclofenac as substrate upto 20 uM by LC-MS/MS analysis. It counts as ADME, Microsome.
The next series deals with Cytochrome P450 2D6 (Homo sapiens, UniProt P10635). As to the kind of experiment: Inhibition of CYP2D6 in human liver microsomes using dextromethorphan as substrate upto 20 uM by LC-MS/MS analysis. It counts as ADME, Microsome.
The target of series [10] is T1, Cytochrome P450 3A4. As to the kind of experiment: Induction of CYP3A4 in human hepatocytes upto 61 uM incubated for 48 hrs by qPCR analysis. It counts as ADME, cell-based, Hepatocyte.
The nature of series [11]: Selectivity ratio of IC50 for C-terminal 6His-tagged recombinant human ADAM8 (1 to 497 residues) using Dabcyl-SSNQLQRR-Glu(EDANS)-NH2 as substrate to IC50 for ADAMTS7 (unknown origin).
The nature of series [12]: Selectivity ratio of IC50 for C-terminal 10His-tagged recombinant human ADAM10 (214 to 672 residues) expressed in baculovirus infected Sf21 cells using Dabcyl-SSNQLQRR-Glu(EDANS)-NH2 as substrate to IC50 for ADAMTS7 (unknown origin).
Series [13] can be described thus: Lipophilicity, logD of compound at pH 7.5. It counts as physicochemical. The following applies: buffer.
The nature of series [14]: Dose normalized AUC in C57bl6 mouse at 0.3 mg/kg, iv measured for >24 hrs by HPLC-MS/MS analysis. It counts as ADME, organism-based. The following applies: in vivo.
The nature of series [15]: Dose normalized AUC in C57bl6 mouse at 1 mg/kg, po measured for >24 hrs by HPLC-MS/MS analysis. It counts as ADME, organism-based. The following applies: in vivo.
A short description of series [16]: Half life in C57bl6 mouse at 1 mg/kg, po measured for >24 hrs by HPLC-MS/MS analysis. It counts as ADME, organism-based. The conditions noted are these: in vivo.
The nature of series [17]: Oral bioavailability in C57bl6 mouse at 1 mg/kg measured for >24 hrs by HPLC-MS/MS analysis. It counts as ADME, organism-based. The conditions noted are these: in vivo.
Series [18] is described as follows: Volume of distribution at steady state in Wistar rat at 0.3 mg/kg, iv measured for >24 hrs by HPLC-MS/MS analysis. It counts as ADME, organism-based. The following applies: in vivo.
The nature of series [19]: Oral bioavailability in Wistar rat at 1 mg/kg measured for >24 hrs by HPLC-MS/MS analysis. It counts as ADME, organism-based. The following applies: in vivo.
A short description of series [20]: Dose normalized AUC in Beagle dog at 0.3 mg/kg, iv measured for >24 hrs by HPLC-MS/MS analysis. It counts as ADME, organism-based, Canis lupus familiaris. The following applies: in vivo.
Series [21] can be described thus: Volume of distribution at steady state in Beagle dog at 0.3 mg/kg, iv measured for >24 hrs by HPLC-MS/MS analysis. It counts as ADME, organism-based, Canis lupus familiaris. The conditions noted are these: in vivo.
Series [22] in a line: Half life in Beagle dog at 1 mg/kg, po measured for >24 hrs by HPLC-MS/MS analysis. It counts as ADME, organism-based, Canis lupus familiaris. The following applies: in vivo.
A short description of series [23]: Oral bioavailability in Beagle dog at 1 mg/kg measured for >24 hrs by HPLC-MS/MS analysis. It counts as ADME, organism-based, Canis lupus familiaris. The conditions noted are these: in vivo.

≈ marks a conversion by molar mass, not a printed value.

T1 sequence (P08684 whole entry): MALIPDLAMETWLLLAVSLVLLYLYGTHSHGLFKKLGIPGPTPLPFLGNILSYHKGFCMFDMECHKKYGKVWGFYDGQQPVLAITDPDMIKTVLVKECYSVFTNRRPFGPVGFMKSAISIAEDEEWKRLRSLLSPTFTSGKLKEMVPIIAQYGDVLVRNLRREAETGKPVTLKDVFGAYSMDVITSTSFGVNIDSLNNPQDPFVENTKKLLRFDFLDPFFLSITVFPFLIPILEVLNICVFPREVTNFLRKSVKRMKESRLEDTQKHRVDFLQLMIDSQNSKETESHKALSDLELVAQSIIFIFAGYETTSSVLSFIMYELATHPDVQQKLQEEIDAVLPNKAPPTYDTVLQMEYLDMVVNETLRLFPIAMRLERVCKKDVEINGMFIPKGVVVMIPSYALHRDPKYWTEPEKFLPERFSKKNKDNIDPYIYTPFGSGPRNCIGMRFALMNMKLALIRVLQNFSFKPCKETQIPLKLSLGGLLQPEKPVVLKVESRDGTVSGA
Cytochrome P450 2D6, sequence (P10635 whole entry): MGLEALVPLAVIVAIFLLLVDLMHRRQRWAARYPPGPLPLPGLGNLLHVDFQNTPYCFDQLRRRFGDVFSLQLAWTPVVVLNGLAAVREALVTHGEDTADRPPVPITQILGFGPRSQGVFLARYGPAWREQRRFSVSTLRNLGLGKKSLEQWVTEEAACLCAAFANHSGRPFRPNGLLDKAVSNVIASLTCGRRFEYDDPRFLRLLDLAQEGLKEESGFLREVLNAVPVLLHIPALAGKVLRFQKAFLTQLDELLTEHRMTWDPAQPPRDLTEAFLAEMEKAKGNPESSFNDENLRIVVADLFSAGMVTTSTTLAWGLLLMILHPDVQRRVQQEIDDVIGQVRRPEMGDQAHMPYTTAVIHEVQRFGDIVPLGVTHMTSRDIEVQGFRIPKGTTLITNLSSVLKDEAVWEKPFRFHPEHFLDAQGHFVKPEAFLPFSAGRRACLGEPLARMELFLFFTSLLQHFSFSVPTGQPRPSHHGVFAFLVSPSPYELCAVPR

What is called solubility is how much of the substance goes into solution per volume. A lower solubility goes with a poorly soluble substance. Broadly, the logD is lipophilicity at a set pH, counting ionised and neutral species. The low end stands for lower lipophilicity, the high end for higher lipophilicity. Broadly, the bioavailability is the share of a dose that reaches the circulation, judged against a reference dose that is usually intravenous. What is called Vdss is the apparent volume that relates the amount in the body to the concentration in plasma or blood. As for `Cn1nccc1[C@]1(CNC(=O)c2ccc(F)c(F)c2-c2ccc(C(F)(F)F)cc2)NC(=O)NC1=O`, the Ratio IC50 is 1650 in [1], 896 in [2], 375 in series [11] and 5470 in series [12]. Also, the Activity was 18 µM on Cytochrome P450 3A4 [3] and “Not Active” at Cytochrome P450 3A4 [10]. Also, the solubility was 135 µg/mL (≈ 274 µM) in series [4] and 297 µg/mL (≈ 602 µM) in series [5]. In series [6], the Stability entry is recorded as “Stable”. In [7], this compound registered a Fu of 15%. Moreover, the “inhibition (INH)” value on Cytochrome P450 2C8 [8], at Cytochrome P450 2C8 [9] and against Cytochrome P450 2D6 was “Not Active” in each case. For the same compound, the logD in series [13] stood at 3.2. Besides, the AUC/dose came out at 1.15 kg·h/L in [14], 2 kg·h/L in [15] and 88 kg·h/L in series [20]. Also, the results for the t1/2 in [16] and in series [22] were 2.5 h and 25 h, respectively. The bioavailability in series [17] stood at 100%. The Vdss stood at 1.2 L/kg in [18] and 0.4 L/kg in [21]. Further, the F in [19] is given as 96%; in series [23], 77%.
